Measurements taken from ChEMBL document CHEMBL4402540, “Structure-Activity Relationship Studies of Small Molecule Modulators of the Staphylococcal Accessory Gene Regulator” (J Med Chem, 2020).
Where a SMILES comes first, the peptide text is derived from it. Bridges are numbered along the chain shown (N, C = ends). [ ]: non-standard residue; d: D form. The star is where a group is joined. X2 = O=C(c1ccccc1)c1ccc(OCCCC(=O)*)cc1; X1 = O=C(CCCOc1ccc(Cc2ccccc2)cc1)*; Dap = NC[C@H](N)C(=O)O

Legend:
[1] = Inhibition of AgrC-2 in Staphylococcus aureus RN9372 by beta-lactamase reporter gene assay
[2] = Inhibition of AgrC-2 in Staphylococcus aureus RN9532 by beta-lactamase reporter gene assay
[3] = Agonist activity at AgrC-4 in Staphylococcus aureus RN9371 by beta-lactamase reporter gene assay
[4] = biological target: T1, Chloramphenicol acetyltransferase (Staphylococcus epidermidis) (UniProt D2JCN2); assay: Activation of Chloramphenicol acetyltransferase activity in Staphylococcus epidermidis Tu3298 at 200 nM and measured every 15 sec for 20 mins (reference value: 12.5 U/mg)
T1 sequence (whole entry): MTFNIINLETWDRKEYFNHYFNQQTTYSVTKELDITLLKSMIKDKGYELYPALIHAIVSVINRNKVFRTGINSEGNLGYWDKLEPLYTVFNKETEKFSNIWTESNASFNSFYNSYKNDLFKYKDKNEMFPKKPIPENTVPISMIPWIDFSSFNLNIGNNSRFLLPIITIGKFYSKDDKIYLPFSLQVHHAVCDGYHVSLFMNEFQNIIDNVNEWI

[5] = Inhibition of AgrC-1 Staphylococcus epidermidis AH3408 incubated for 24 hrs by fluorescence assay
[6] = Inhibition of AgrC-1 Staphylococcus aureus RN6390B by agr-blaZ reporter gene assay
[7] = Inhibition of AgrC-2 Staphylococcus aureus SA564 by agr-blaZ reporter gene assay
Staphylococcus aureus [8] = assay: Antibacterial activity against methicillin-resistant Staphylococcus aureus USA300 infected in CD-1 mouse MRSA sepsis model assessed as survival rate at 30 mg/kg, ip after 144 hrs (reference value: 70%); assay type: functional
[9] = biological target: T2, Receptor-histidine kinase AgrC (Staphylococcus aureus) (UniProt O07911); assay: Activation of AgrC in early exponential phase Staphylococcus aureus RN6390B assessed as beta-lactamase activity incubated for 55 mins by spectrophotometric method
T2 sequence (whole entry): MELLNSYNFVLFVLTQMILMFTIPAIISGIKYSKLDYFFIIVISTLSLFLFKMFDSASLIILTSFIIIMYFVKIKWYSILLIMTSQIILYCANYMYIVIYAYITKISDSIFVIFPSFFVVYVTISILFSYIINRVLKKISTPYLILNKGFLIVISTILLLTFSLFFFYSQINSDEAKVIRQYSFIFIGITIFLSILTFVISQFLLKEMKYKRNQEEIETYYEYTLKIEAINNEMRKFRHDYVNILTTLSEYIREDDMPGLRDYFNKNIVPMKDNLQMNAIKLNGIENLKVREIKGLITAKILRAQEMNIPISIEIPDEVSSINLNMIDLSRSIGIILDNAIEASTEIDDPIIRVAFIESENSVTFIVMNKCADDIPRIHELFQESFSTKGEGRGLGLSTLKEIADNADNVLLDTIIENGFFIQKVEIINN

[10] = biological target: T3, Receptor-histidine kinase AgrC (Staphylococcus aureus, UniProt O07911); assay: Inhibition of AgrC in mid-exponential phase Staphylococcus aureus SA502A assessed as beta-lactamase activity incubated for 80 mins by spectrophotometric method
T3 sequence (O07911 whole entry): T2 sequence (whole entry)

[11] = biological target: T3, Receptor-histidine kinase AgrC; assay: Inhibition of AgrC in mid-exponential phase Staphylococcus aureus RN8463 assessed as beta-lactamase activity incubated for 80 mins by spectrophotometric method
Staphylococcus aureus [12] = assay: Agonist activity at AgrC-4 in Staphylococcus aureus RN9371 incubated for 60 to 90 mins by beta-lactamase reporter gene assay
Staphylococcus aureus [13] = assay: Agonist activity at AgrC-1 in Staphylococcus aureus RN9222 incubated for 60 to 90 mins by beta-lactamase reporter gene assay
[14] = Inhibition of AgrC-2 in Staphylococcus aureus RN9372 incubated for 60 to 90 mins in presence of AIP agonist by beta-lactamase reporter gene assay
[15] = Agonist activity at AgrC-3 in Staphylococcus aureus incubated for 60 to 90 mins in presence of AIP agonist by beta-lactamase reporter gene assay
[16] = biological target: T3, Receptor-histidine kinase AgrC; assay: Inhibition of AgrC in mid-exponential phase Staphylococcus aureus RN6390B assessed as beta-lactamase activity incubated for 80 mins by spectrophotometric method
[17] = biological target: T2, Receptor-histidine kinase AgrC (Staphylococcus aureus); assay: Activation of AgrC in early exponential phase Staphylococcus aureus SA502A assessed as beta-lactamase activity incubated for 55 mins by spectrophotometric method
Staphylococcus aureus [18] = assay: Agonist activity at AgrC-2 in Staphylococcus aureus RN9372 incubated for 60 to 90 mins by beta-lactamase reporter gene assay
[19] = Inhibition of AgrC-1 in Staphylococcus aureus RN9222 incubated for 60 to 90 mins in presence of AIP agonist by beta-lactamase reporter gene assay
[20] = Agonist activity at AgrC-4 in Staphylococcus aureus RN9371 incubated for 60 to 90 mins in presence of AIP agonist by beta-lactamase reporter gene assay
[21] = Inhibition of AgrC-1 Staphylococcus aureus RN10829 incubated for 45 mins by beta-lactamase reporter gene assay
[22] = Inhibition of AgrC-1 in Staphylococcus aureus
[23] = Inhibition of AgrC-2 in Staphylococcus aureus
[24] = Inhibition of AgrC-3 in Staphylococcus aureus
[25] = Inhibition of AgrC-4 in Staphylococcus aureus
Staphylococcus aureus [26] = assay: Inhibition of AIP biosynthesis in methicillin-resistant Staphylococcus aureus USA300 incubated for 16 hrs by LC-MS analysis; assay type: functional, organism-based; conditions: USA300, 16 h
Staphylococcus aureus [27] = assay: Antibacterial activity against methicillin-resistant Staphylococcus aureus infected in BALB/c mouse assessed as reduction in skin ulcer formation at 25 ug, id after 4 days relative to control; assay type: functional; parameters: scale not given: the % may be the effect or the level left
Staphylococcus aureus [28] = assay: Antibacterial activity against methicillin-resistant Staphylococcus aureus infected in BALB/c mouse assessed as reduction in skin ulcer formation at 5 ug, id after 4 days relative to control; assay type: functional; parameters: scale not given: the % may be the effect or the level left
[29] = Inhibition of AgrC-1 in Staphylococcus aureus AH1677 incubated for 24 hrs by fluorescence assay
[30] = Inhibition of AgrC-2 in Staphylococcus aureus AH430 incubated for 24 hrs by fluorescence assay
[31] = Inhibition of AgrC-3 in Staphylococcus aureus AH1747 incubated for 24 hrs by fluorescence assay
[32] = Inhibition of AgrC-4 in Staphylococcus aureus AH1872 incubated for 24 hrs by fluorescence assay

## CC[C@H](C)[C@H](NC(=O)[C@@H](N)CC(=O)O)C(=O)N[C@H]1CSC(=O)[C@H](Cc2ccccc2)NC(=O)[C@H](Cc2ccc(O)cc2)NC(=O)[C@H](C)NC(=O)[C@H](CC(N)=O)NC1=O (H-DICNAYF; thioester 3-C)
[1]
  IC50: 419 nM
[2]
  IC50: 36.6 nM
[3]
  IC50: > 1000 nM

## CC(C)[C@H](NC(=O)[C@H](CO)NC(=O)[C@@H](N)CC(=O)O)C(=O)N[C@H]1CSC(=O)[C@H](Cc2ccccc2)NC(=O)[C@H](Cc2ccc(O)cc2)NC(=O)[C@H](CO)NC(=O)[C@H](C)NC1=O (H-DSVCASYF; thioester 4-C)
[1]
  IC50: > 1000 nM
[2]
  IC50: 13 nM
[3]
  IC50: > 1000 nM
[4]
  Activity: 53.3 U/mg

## C[C@H](N)C(=O)N[C@@H](CO)C(=O)N[C@@H](C)C(=O)N[C@H]1CSC(=O)[C@H](Cc2ccccc2)NC(=O)[C@H](Cc2ccc(O)cc2)NC(=O)[C@H](C)NC(=O)[C@H](C)NC1=O (H-ASACAAYF; thioester 4-C)
[5]
  IC50: 2.84 nM

## CC[C@H](C)[C@@H]1NC(=O)[C@H](Cc2ccccc2)NC(=O)[C@H](C)NC(=O)[C@@H](NC(=O)[C@@H](NC(=O)[C@H](CO)NC(=O)CCCOc2ccc(Cc3ccccc3)cc2)[C@@H](C)O)CSC(=O)[C@H](CCSC)NC1=O (X1-STCAFIM; thioester 3-C)
[6]
  IC50: 295 nM
[7]
  IC50: 19 nM

## CCCCCCc1cc(C(=O)COc2ccc(C(C)C)cc2)c(O)cc1O
Staphylococcus aureus [8]
  survival at 30 mg/kg: 100%

## CC[C@H](C)[C@@H]1NC(=O)[C@H](Cc2ccccc2)NC(=O)[C@H](CC(=O)O)NC(=O)[C@@H](NC(=O)[C@@H](NC(=O)[C@H](CO)NC(=O)[C@@H](N)Cc2ccc(O)cc2)[C@@H](C)O)CSC(=O)[C@H](CCSC)NC1=O (H-YSTCDFIM; thioester 4-C)
[9]
  ED50: 10.2 nM
[10]
  IC50: 3.4 nM
[11]
  IC50: 3.1 nM
Staphylococcus aureus [12]
  ED50: 26000 nM
Staphylococcus aureus [13]
  ED50: 28 nM
[14]
  IC50: 25 nM
[15]
  IC50: 3 nM

## CC(C)C[C@@H]1NC(=O)[C@H](CO)NC(=O)[C@H](CO)NC(=O)[C@@H](NC(=O)[C@H](C)NC(=O)[C@H](CC(N)=O)NC(=O)[C@@H](NC(=O)CN)C(C)C)CSC(=O)[C@H](Cc2ccccc2)NC1=O (H-GVNACSSLF; thioester 5-C)
[16]
  IC50: 2.9 nM
[17]
  ED50: 3.6 nM
[11]
  IC50: 3.2 nM
Staphylococcus aureus [18]
  ED50: 30 nM
[19]
  IC50: 40 nM
[15]
  IC50: 1 nM
[20]
  IC50: 86 nM
[21]
  IC50: 12 nM

## CC[C@H](C)[C@H]1NC(=O)[C@@H](Cc2ccccc2)NC(=O)[C@@H](C)NC(=O)[C@H](NC(C)=O)CSC(=O)[C@@H](CCSC)NC1=O
[22]
  IC50: 5 nM
[23]
  IC50: 5 nM
[24]
  IC50: 0.1 nM
[25]
  IC50: 5 nM

## CC[C@H](C)[C@H]1NC(=O)[C@@H](Cc2ccccc2)NC(=O)[C@@H](C)NC(=O)[C@H](NC(=O)[C@H](NC(=O)[C@@H](CO)NC(=O)[C@H](N)Cc2ccc(O)cc2)[C@@H](C)O)CSC(=O)[C@@H](CCSC)NC1=O
[22]
  IC50: 5 to 303 nM
[23]
  IC50: 8 to 18 nM
[24]
  IC50: 0.3 nM
[25]
  IC50: 3 nM

## CC[C@H](C)[C@@H]1NC(=O)[C@H](Cc2ccccc2)NC(=O)[C@H](C)NC(=O)[C@@H](NC(=O)[C@@H](NC(=O)[C@H](CO)NC(=O)CCCOc2ccc(C(=O)c3ccccc3)cc2)[C@@H](C)O)CSC(=O)[C@H](CCSC)NC1=O (X2-STCAFIM; thioester 3-C)
[6]
  IC50: 21 nM
[7]
  IC50: 4 nM

## CC(C)C[C@@H]1NC(=O)[C@H](CO)NC(=O)[C@H](CO)NC(=O)[C@@H](NC(=O)[C@H](C)NC(=O)[C@H](CC(N)=O)NC(=O)[C@@H](NC(=O)CN)C(C)C)CNC(=O)[C@H](Cc2ccccc2)NC1=O (H-GVNA[Dap]SSLF; lactam 5-C)
[16]
  IC50: < 1 nM

## CC(C)C[C@@H]1NC(=O)[C@H](Cc2ccc(O)cc2)NC(=O)[C@H](CC(N)=O)NC(=O)[C@H](CO)NC(=O)[C@@H](NC(=O)[C@@H]2CCCN2C(=O)[C@H](CC(N)=O)NC(=O)[C@H](Cc2ccc(O)cc2)NC(=O)[C@H](CCCCN)NC(=O)[C@H](CO)NC(=O)[C@H](C)NC(=O)[C@@H](N)CC(N)=O)CSC1=O (H-NASKYNPCSNYL; thioester 8-C)
[5]
  IC50: 9.64 nM

## CCCCC/C=C/C1=C(CO)[C@@H](O)[C@H]2O[C@@]2(C/C=C(\C)C(=O)O)C1=O
Staphylococcus aureus [26]
  IC50: 2500 nM
Staphylococcus aureus [27]
  Activity: 100%
Staphylococcus aureus [28]
  Activity: 50%

## CC(C)C[C@@H]1NC(=O)[C@H](CO)NC(=O)[C@H](CO)NC(=O)[C@@H](NC(=O)[C@H](C)NC(=O)[C@H](CC(N)=O)NC(=O)[C@@H](NC(=O)CN)C(C)C)COC(=O)[C@H](Cc2ccccc2)NC1=O (H-GVNASSSLF; ester 5-C)
[16]
  IC50: 7.9 nM

## CC(C)C[C@H]1NC(=O)[C@@H](Cc2ccccc2)NC(=O)[C@@H](CC(=O)O)NC(=O)[C@@H](NC(=O)[C@@H](Cc2ccccc2)NC(=O)[C@@H]2CCCN2C(=O)[C@H](N)Cc2ccc(O)cc2)CSC(=O)[C@@H](CC(C)C)NC1=O
[21]
  IC50: 0.31 nM

## CC(=O)N[C@H]1CSC(=O)[C@@H](CC(C)C)NC(=O)[C@@H](CC(C)C)NC(=O)[C@@H](Cc2ccccc2)NC(=O)[C@@H](CC(=O)O)NC1=O
[21]
  IC50: 16.8 nM

## CC[C@H](C)[C@@H]1NC(=O)[C@H](Cc2ccccc2)NC(=O)[C@H](Cc2ccc(O)cc2)NC(=O)[C@@H](NC(=O)[C@@H](NC(=O)[C@H](CO)NC(=O)[C@@H](N)Cc2ccc(O)cc2)[C@@H](C)O)CSC(=O)[C@H](CCSC)NC1=O (H-YSTCYFIM; thioester 4-C)
Staphylococcus aureus [12]
  ED50: 13 nM
Staphylococcus aureus [13]
  ED50: 62 nM
[14]
  IC50: 4 nM
[15]
  IC50: 1 nM

## CC[C@@H](C)[C@H](NC(C)=O)C(=O)N[C@H](CC(N)=O)C(=O)N[C@@H]1CSC(=O)[C@@H](Cc2ccccc2)NC(=O)[C@@H](CC(C)C)NC(=O)[C@@H](CC(C)C)NC(=O)[C@@H](C)NC1=O
[22]
  IC50: 0.5 nM
[23]
  IC50: 0.4 nM
[24]
  IC50: 0.05 nM
[25]
  IC50: 0.03 nM
[29]
  IC50: 0.485 to 2.9 nM
[30]
  IC50: 0.429 to 3.5 nM
[31]
  IC50: 0.0506 to 0.35 nM
[32]
  IC50: 0.0349 to 0.75 nM
